Values quoted from earlier work, collected in patent US12281304B2, “Compositions and methods for treating and preventing muscular disorders and dystrophies, steroid side effects, and inflammation” (Children's National Medical Center, priority 2018, dated 2025).

Tested on: mdx mice
Conditions: same mdx mice as discovery set; prednisolone 5 mg/kg, vamorolone 15 mg/kg; cited from earlier work

C[C@]12C=CC(=O)C=C1CC[C@@H]1[C@@H]2[C@@H](O)C[C@@]2(C)[C@H]1CC[C@]2(O)C(=O)CO [prednisolone]
grip strength, muscle pathology and diaphragm inflammation: successfully improved grip strength, muscle pathology, and diaphragm inflammation
steroid side effects (stunted growth, immunosuppression, bone loss): caused traditional steroid side effects of stunted growth, immunosuppression, and bone loss

C[C@@H]1C[C@H]2[C@@H]3CCC4=CC(=O)C=C[C@]4(C)C3=CC[C@]2(C)[C@@]1(O)C(=O)CO [vamorolone]
grip strength, muscle pathology and diaphragm inflammation: successfully improved grip strength, muscle pathology, and diaphragm inflammation
steroid side effects (stunted growth, immunosuppression, bone loss): successfully avoided these side effects
